# Data taken from PubChem BioAssay (NCI).
#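 1) Cells in 96-well plates. 2) Compound, 48 h, 5 concentrations. 3) Linear interpolation between surrounding doses. 4) Unreached endpoint = highest concentration. TGI: concentration producing complete growth inhibition.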
# Experiments:
# Assay in all cases: NCI tumour cell line growth inhibition, 48 h
# LOX IMVI melanoma = system: LOX IMVI melanoma
# A549 NSCLC = system: A549 NSCLC
# KM20L2 colon = system: KM20L2 colon
# OVCAR-5 ovarian = system: OVCAR-5 ovarian
# HOP-92 NSCLC = system: HOP-92 NSCLC
# SF-539 CNS = system: SF-539 CNS
# M19-MEL melanoma = system: M19-MEL melanoma
# NCI-H522 lung = system: NCI-H522 lung
# SF-268 CNS = system: SF-268 CNS
# SN12C renal = system: SN12C renal
# DMS 273 small cell lung = system: DMS 273 small cell lung
# RPMI-8226 leukemia = system: RPMI-8226 leukemia
# HCT-116 colon = system: HCT-116 colon
# UO-31 renal = system: UO-31 renal
# A498 renal = system: A498 renal
# SNB-19 CNS = system: SNB-19 CNS
# HOP-62 NSCLC = system: HOP-62 NSCLC
# OVCAR-3 ovarian = system: OVCAR-3 ovarian
# SK-OV-3 ovarian = system: SK-OV-3 ovarian
# HCT-15 colon = system: HCT-15 colon
# SK-MEL-28 melanoma = system: SK-MEL-28 melanoma
# EKVX NSCLC = system: EKVX NSCLC
# NCI-H23 lung = system: NCI-H23 lung
# SK-MEL-2 melanoma = system: SK-MEL-2 melanoma
# DMS 114 small cell lung = system: DMS 114 small cell lung
# CAKI-1 renal = system: CAKI-1 renal
# IGROV1 ovarian = system: IGROV1 ovarian
# 786-0 renal = system: 786-0 renal
# K-562 leukemia = system: K-562 leukemia
# SF-295 CNS = system: SF-295 CNS
# RXF-631 renal = system: RXF-631 renal
# NCI-H460 lung = system: NCI-H460 lung
# SNB-78 CNS = system: SNB-78 CNS
# SNB-75 CNS = system: SNB-75 CNS
# OVCAR-8 ovarian = system: OVCAR-8 ovarian
# OVCAR-4 ovarian = system: OVCAR-4 ovarian
# SK-MEL-5 melanoma = system: SK-MEL-5 melanoma
# HL-60(TB) leukemia = system: HL-60(TB) leukemia
# SW-620 colon = system: SW-620 colon
# RXF 393 renal = system: RXF 393 renal
# KM12 colon = system: KM12 colon
# DLD-1 colon = system: DLD-1 colon
# UACC-257 melanoma = system: UACC-257 melanoma
# HOP-18 NSCLC = system: HOP-18 NSCLC
# SR leukemia = system: SR leukemia
# TK-10 renal = system: TK-10 renal
# M14 melanoma = system: M14 melanoma
# U251 CNS = system: U251 CNS
# COLO 205 colon = system: COLO 205 colon
# NCI-H226 lung = system: NCI-H226 lung
# ACHN renal = system: ACHN renal
# UACC-62 melanoma = system: UACC-62 melanoma
# HT29 colon = system: HT29 colon
# HCC-2998 colon = system: HCC-2998 colon
# MALME-3M melanoma = system: MALME-3M melanoma
# MOLT-4 leukemia = system: MOLT-4 leukemia
# CCRF-CEM leukemia = system: CCRF-CEM leukemia
# LXFL 529 NSCLC = system: LXFL 529 NSCLC
# XF 498 CNS = system: XF 498 CNS
smiles,measurement,setting,value
CC1=C(/C=C/C(C)=C/C=C/C(C)=C/C=C/C=C(C)/C=C/C=C(C)/C=C/C2=C(C)C(=O)C(O)CC2(C)C)C(C)(C)CC(O)C1=O (stereo not given),TGI,LOX IMVI melanoma,> 100 µM
same,TGI,A549 NSCLC,> 100 µM
same,TGI,KM20L2 colon,> 100 µM
same,TGI,OVCAR-5 ovarian,> 100 µM
same,TGI,HOP-92 NSCLC,> 100 µM
same,TGI,SF-539 CNS,> 100 µM
same,TGI,M19-MEL melanoma,> 100 µM
same,TGI,NCI-H522 lung,> 100 µM
same,TGI,SF-268 CNS,> 100 µM
same,TGI,SN12C renal,> 100 µM
same,TGI,DMS 273 small cell lung,> 100 µM
same,TGI,RPMI-8226 leukemia,> 100 µM
same,TGI,HCT-116 colon,> 100 µM
same,TGI,UO-31 renal,> 100 µM
same,TGI,A498 renal,> 100 µM
same,TGI,SNB-19 CNS,> 100 µM
same,TGI,HOP-62 NSCLC,> 100 µM
same,TGI,OVCAR-3 ovarian,> 100 µM
same,TGI,SK-OV-3 ovarian,> 100 µM
same,TGI,HCT-15 colon,> 100 µM
same,TGI,SK-MEL-28 melanoma,> 100 µM
same,TGI,EKVX NSCLC,> 100 µM
same,TGI,NCI-H23 lung,> 100 µM
same,TGI,SK-MEL-2 melanoma,> 100 µM
same,TGI,DMS 114 small cell lung,> 100 µM
same,TGI,CAKI-1 renal,> 100 µM
same,TGI,IGROV1 ovarian,> 100 µM
same,TGI,786-0 renal,> 100 µM
same,TGI,K-562 leukemia,> 100 µM
same,TGI,SF-295 CNS,> 100 µM
same,TGI,RXF-631 renal,> 100 µM
same,TGI,NCI-H460 lung,> 100 µM
same,TGI,SNB-78 CNS,> 100 µM
same,TGI,SNB-75 CNS,> 100 µM
same,TGI,OVCAR-8 ovarian,> 100 µM
same,TGI,OVCAR-4 ovarian,> 100 µM
same,TGI,SK-MEL-5 melanoma,> 100 µM
same,TGI,HL-60(TB) leukemia,> 100 µM
same,TGI,SW-620 colon,> 100 µM
same,TGI,RXF 393 renal,> 100 µM
same,TGI,KM12 colon,> 100 µM
same,TGI,DLD-1 colon,> 100 µM
same,TGI,UACC-257 melanoma,> 100 µM
same,TGI,HOP-18 NSCLC,> 100 µM
same,TGI,SR leukemia,> 100 µM
same,TGI,TK-10 renal,> 100 µM
same,TGI,M14 melanoma,> 100 µM
same,TGI,U251 CNS,> 100 µM
same,TGI,COLO 205 colon,> 100 µM
same,TGI,NCI-H226 lung,> 100 µM
same,TGI,ACHN renal,> 100 µM
same,TGI,UACC-62 melanoma,> 100 µM
same,TGI,HT29 colon,> 100 µM
same,TGI,HCC-2998 colon,> 100 µM
same,TGI,MALME-3M melanoma,> 100 µM
same,TGI,MOLT-4 leukemia,> 100 µM
same,TGI,CCRF-CEM leukemia,> 100 µM
COc1c(Sc2ccccc2)cc(Sc2ccccc2)c2cccnc12,TGI,LXFL 529 NSCLC,> 100 µM
same,TGI,LOX IMVI melanoma,42.7 µM
same,TGI,A549 NSCLC,> 100 µM
same,TGI,KM20L2 colon,50.2 µM
same,TGI,OVCAR-5 ovarian,> 100 µM
same,TGI,SF-539 CNS,85.5 µM
same,TGI,M19-MEL melanoma,94.9 µM
same,TGI,SF-268 CNS,> 100 µM
same,TGI,SN12C renal,97.6 µM
same,TGI,DMS 273 small cell lung,49.3 µM
same,TGI,RPMI-8226 leukemia,50 µM
same,TGI,HCT-116 colon,> 100 µM
same,TGI,UO-31 renal,54 µM
same,TGI,A498 renal,82.3 µM
same,TGI,SNB-19 CNS,> 100 µM
same,TGI,HOP-62 NSCLC,> 100 µM
same,TGI,OVCAR-3 ovarian,61.2 µM
same,TGI,SK-OV-3 ovarian,> 100 µM
same,TGI,HCT-15 colon,49.3 µM
same,TGI,SK-MEL-28 melanoma,> 100 µM
same,TGI,EKVX NSCLC,> 100 µM
same,TGI,NCI-H23 lung,62.1 µM
same,TGI,SK-MEL-2 melanoma,42.6 µM
same,TGI,DMS 114 small cell lung,91.3 µM
same,TGI,CAKI-1 renal,70.7 µM
same,TGI,IGROV1 ovarian,> 100 µM
same,TGI,786-0 renal,65.9 µM
same,TGI,XF 498 CNS,45.6 µM
same,TGI,K-562 leukemia,> 100 µM
same,TGI,SF-295 CNS,78.6 µM
same,TGI,RXF-631 renal,> 100 µM
same,TGI,NCI-H460 lung,54.5 µM
same,TGI,SNB-78 CNS,> 100 µM
same,TGI,SNB-75 CNS,66 µM
same,TGI,OVCAR-8 ovarian,> 100 µM
same,TGI,OVCAR-4 ovarian,61.9 µM
same,TGI,SK-MEL-5 melanoma,30.5 µM
same,TGI,SW-620 colon,> 100 µM
same,TGI,RXF 393 renal,51.5 µM
same,TGI,KM12 colon,> 100 µM
same,TGI,DLD-1 colon,> 100 µM
same,TGI,UACC-257 melanoma,41.1 µM
same,TGI,TK-10 renal,81.3 µM
same,TGI,M14 melanoma,> 100 µM
same,TGI,U251 CNS,70.7 µM
same,TGI,COLO 205 colon,39 µM
same,TGI,ACHN renal,> 100 µM
same,TGI,UACC-62 melanoma,63.2 µM
same,TGI,HT29 colon,71.1 µM
same,TGI,HCC-2998 colon,> 100 µM
same,TGI,MALME-3M melanoma,44.1 µM
same,TGI,MOLT-4 leukemia,48.1 µM
same,TGI,CCRF-CEM leukemia,54.5 µM
